Measurements taken from patent publication US12599136B2, “Substituted isophthalic acid diamides and their use as herbicides” (Bayer Aktiengesellschaft, priority 2020, dated 2026).

How the values were obtained:
Format in all cases: in vivo
Viola tricolor [1] = assay: Post-emergence herbicidal action against VIOTR; settings: 80 g/ha
Procedure, shortened: (§1)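 Spray, one-leaf stage: WP or EC compound in water, 600–800 l/ha, 0.2% wetting agent. Plants held about 3 weeks in the greenhouse, then visually rated in percent of kill compared with untreated controls.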

Pharbitis purpurea [2] = assay: Pre-emergence herbicidal action against PHBPU; settings: 320 g/ha; visual score after 3 weeks vs untreated controls
Source text: (§2) Seeds of monocotyledonous and dicotyledonous weed plants and crop plants are laid out in sandy loam soil in wood-fiber pots and covered with soil. The compounds of the invention, formulated in the form of wettable powders (WP) or as emulsion concentrates (EC), are then applied to the surface of the covering soil in the form of an aqueous suspension or emulsion at a water application rate equivalent to 600 to 800 l/ha, with addition of 0.2% wetting agent. After the treatment, the pots are placed in a greenhouse and kept under good growth conditions for the trial plants. The damage to the test plants is scored visually after a test period of 3 weeks by comparison with untreated controls (herbicidal activity in percent (%): 100% activity=the plants have died, 0% activity=like control plants). […] The tables below illustrate, in an illustrative manner, the post-emergence herbicidal action of the compounds of the invention, the herbicidal activity being stated in percent.

Stellaria media [3] = assay: Post-emergence herbicidal action against STEME; settings: visual assessment about 3 weeks after treatment
Method: Seeds of monocotyledonous and dicotyledonous weed and crop plants are laid out in sandy loam soil in wood-fiber pots, covered with soil and cultivated in a greenhouse under good growth conditions. 2 to 3 weeks after sowing, the test plants are treated at the one-leaf stage. The compounds of the invention, formulated in the form of wettable powders (WP) or as emulsion concentrates (EC), are then sprayed onto the green parts of the plants in the form of an aqueous suspension or emulsion at a water application rate equivalent to 600 to 800 l/ha, with addition of 0.2% wetting agent. After the test plants have been left to stand in the greenhouse under optimal growth conditions for about 3 weeks, the action of the preparations is assessed visually in comparison to untreated controls (herbicidal action in percent (%): 100% activity=the plants have died, 0% activity=like control plants). […] The tables below illustrate, in an illustrative manner, the post-emergence herbicidal action of the compounds of the invention, the herbicidal activity being stated in percent.

Viola tricolor [4] = assay: Pre-emergence herbicidal action against VIOTR
Procedure, shortened: (§3)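 Pre-emergence soil-surface spray of formulated compound (WP or EC; 600 to 800 l/ha; 0.2% wetting agent) over seeds sown in sandy loam. After 3 weeks under greenhouse conditions, damage is estimated visually in percent against untreated plants.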

Setaria viridis = assay: Pre-emergence herbicidal action against SETVI
Procedure, shortened: as §3

Veronica persica = assay: Pre-emergence herbicidal action against VERPE; settings: 320 g/ha
Procedure, shortened: as §3

Abutilon theophrasti [5] = assay: Pre-emergence herbicidal action against ABUTH; settings: visual score after 3 weeks vs untreated controls
Procedure, shortened: as §3

Stellaria media [6] = assay: Pre-emergence herbicidal action against STEME
Source text: as §2

Cyperus esculentus = assay: Pre-emergence herbicidal action against CYPES; settings: visual score after 3 weeks vs untreated controls
Source text: as §2

Avena fatua [7] = assay: Pre-emergence herbicidal action against AVEFA; settings: 320 g/ha; visual score after 3 weeks vs untreated controls
Procedure, shortened: as §3

Avena fatua [8] = assay: Post-emergence herbicidal action against AVEFA; settings: 80 g/ha, visual assessment about 3 weeks after treatment
Procedure, shortened: as §1

Polygonum convolvulus = assay: Pre-emergence herbicidal action against POLCO; settings: 320 g/ha
Procedure, shortened: as §3

Matricaria inodora [9] = assay: Post-emergence herbicidal action against MATIN; settings: visual assessment about 3 weeks after treatment
Procedure, shortened: as §1

Amaranthus retroflexus [10] = assay: Pre-emergence herbicidal action against AMARE; settings: visual score after 3 weeks vs untreated controls
Procedure, shortened: as §3

Echinochloa crus-galli [11] = assay: Pre-emergence herbicidal action against ECHCG; settings: visual score after 3 weeks vs untreated controls
Procedure, shortened: as §3

Pharbitis purpurea [12] = assay: Post-emergence herbicidal action against PHBPU; settings: visual assessment about 3 weeks after treatment
Procedure, shortened: as §1

Amaranthus retroflexus [13] = assay: Post-emergence herbicidal action against AMARE; settings: visual assessment about 3 weeks after treatment
Procedure, shortened: as §1

Abutilon theophrasti [14] = assay: Post-emergence herbicidal action against ABUTH
Procedure, shortened: as §1

Matricaria inodora [15] = assay: Pre-emergence herbicidal action against MATIN; settings: visual score after 3 weeks vs untreated controls
Procedure, shortened: as §3

Echinochloa crus-galli [16] = assay: Post-emergence herbicidal action against ECHCG; settings: visual assessment about 3 weeks after treatment
Procedure, shortened: as §1

CCCn1nnnc1NC(=O)c1ccc(C(F)(F)F)c(C(=O)n2cccn2)c1Cl [Example 3-153]
Post-emergence action against VIOTR in % (Viola tricolor [1]): 90% | Pre-emergence action against PHBPU (Pharbitis purpurea [2]): 100% | Post-emergence action against STEME in % (Stellaria media [3]; 5 g/ha): 100% | Post-emergence action against STEME in % (Stellaria media [3]; 20 g/ha): 100% | Post-emergence action against STEME in % (Stellaria media [3]; 80 g/ha): 100% | Pre-emergence action against VIOTR (Viola tricolor [4]; 20 g/ha): 90% | Pre-emergence action against VIOTR (Viola tricolor [4]; 80 g/ha): 100% | Pre-emergence action against VIOTR (Viola tricolor [4]; 320 g/ha): 100% | Pre-emergence action against SETVI (Setaria viridis; 20 g/ha): 90% | Pre-emergence action against SETVI (Setaria viridis; 80 g/ha): 100% | Pre-emergence action against SETVI (Setaria viridis; 320 g/ha): 100% | Pre-emergence action against VERPE (Veronica persica): 90% | Pre-emergence action against ABUTH (Abutilon theophrasti [5]; 20 g/ha): 100% | Pre-emergence action against ABUTH (Abutilon theophrasti [5]; 80 g/ha): 100% | Pre-emergence action against ABUTH (Abutilon theophrasti [5]; Dosage column 320 g/ha (heading prints 3200 g/ha)): 100% | Pre-emergence action against STEME (Stellaria media [6]; 20 g/ha): 90% | Pre-emergence action against STEME (Stellaria media [6]; 80 g/ha): 100% | Pre-emergence action against STEME (Stellaria media [6]; 320 g/ha): 100% | Pre-emergence action against CYPES (Cyperus esculentus; 80 g/ha): 80% | Pre-emergence action against CYPES (Cyperus esculentus; 320 g/ha): 80% | Pre-emergence action against AVEFA (Avena fatua [7]): 90% | Post-emergence action against AVEFA in % (Avena fatua [8]): 80% | Pre-emergence action against POLCO (Polygonum convolvulus): 90% | Post-emergence action against MATIN in % (Matricaria inodora [9]; 5 g/ha): 80% | Post-emergence action against MATIN in % (Matricaria inodora [9]; 20 g/ha): 90% | Post-emergence action against MATIN in % (Matricaria inodora [9]; 80 g/ha): 100% | Pre-emergence action against AMARE (Amaranthus retroflexus [10]; 20 g/ha): 100% | Pre-emergence action against AMARE (Amaranthus retroflexus [10]; 80 g/ha): 100% | Pre-emergence action against AMARE (Amaranthus retroflexus [10]; 320 g/ha): 100% | Pre-emergence action against ECHCG (Echinochloa crus-galli [11]; 80 g/ha): 90% | Pre-emergence action against ECHCG (Echinochloa crus-galli [11]; 320 g/ha): 100% | Post-emergence action against PHBPU in % (Pharbitis purpurea [12]; 5 g/ha): 80% | Post-emergence action against PHBPU in % (Pharbitis purpurea [12]; 20 g/ha): 80% | Post-emergence action against PHBPU in % (Pharbitis purpurea [12]; 80 g/ha): 90% | Post-emergence action against AMARE in % (Amaranthus retroflexus [13]; 5 g/ha): 90% | Post-emergence action against AMARE in % (Amaranthus retroflexus [13]; 20 g/ha): 90% | Post-emergence action against AMARE in % (Amaranthus retroflexus [13]; 80 g/ha): 100% | Post-emergence action against ABUTH (Abutilon theophrasti [14]; 5 g/ha): 90% | Post-emergence action against ABUTH (Abutilon theophrasti [14]; 20 g/ha): 90% | Post-emergence action against ABUTH (Abutilon theophrasti [14]; 80 g/ha): 90% | Pre-emergence action against MATIN (Matricaria inodora [15]; 20 g/ha): 80% | Pre-emergence action against MATIN (Matricaria inodora [15]; 80 g/ha): 100% | Pre-emergence action against MATIN (Matricaria inodora [15]; 320 g/ha): 100% | Post-emergence action against ECHCG in % (Echinochloa crus-galli [16]; 20 g/ha): 80% | Post-emergence action against ECHCG in % (Echinochloa crus-galli [16]; 80 g/ha): 100%
